Measurements reported in patent US20220175766A1, “COMPOSITIONS AND METHODS OF TREATMENT” (GB004, Inc., priority 2019, published 2022).
Read-outs that look alike come from different tables or passages of the source.

Legend:
[1] = Phase 1a multiple ascending dose study (oral solution): plasma pharmacokinetics; format: in vivo, human; conditions: human, plasma, oral; for concentration at 3 h: Hour 3; for concentration at 3 h / concentration at 4 h / concentration at 6 h / concentration at 8 h / concentration at 12 h / concentration at 16 h / concentration at 24 h / concentration at 0.5 h / concentration at 1 h / concentration at 2 h: read-out: Compound 1 concentration, Conc (SD); for concentration at 4 h: Hour 4; for concentration at 6 h: Hour 6; for concentration at 8 h: Hour 8; for concentration at 12 h: Hour 12; for concentration at 16 h: Hour 16; for concentration at 24 h: Hour 24; for AUC: read-out: AUC(0-τ), mean (SD); for concentration at 0.5 h: Hour 0.5; for concentration at 1 h: Hour 1; for concentration at 2 h: Hour 2; for AUC(0-t): read-out: AUC(0-t), mean; for Tmax: read-out: Tmax, median (range)
Method: Compound 1 was administered as the HCl-salt (prepared analogously to Example 2.1).
The secondary objective was to characterize the multiple dose pharmacokinetic (PK) parameters of Compound 1, after ascending doses. Secondary endpoints included determination of PK parameters in plasma and urine, fecal excretion and assessment of colonic biopsy samples.
Blood samples were collected at the following time points relative to dose administration on Day 1 and Day 7: pre-dose; 0.5, 1, 2, 3, 4, 6, 8, 12, 16 and 24 hours post dose. Analysis and concentration determinations were performed using a liquid chromatography-mass spectrometry and liquid chromatography-tandem mass spectrometry (LC/MS/MS) method.

[2] = Phase 1a multiple ascending dose study: Compound 1 in fecal samples; format: in vivo, human; conditions: for dose excreted: human, feces, oral, read-out: Mean recovery of Compound 1 in feces, range across cohorts
Method: Fecal samples were collected, when possible, over 24 hours (0-24 hours) post administration on Day 1 and Day 7; the absolute amount of Compound 1 measured (mg) is shown Table 48.

[3] = 120 mg, Cohort 2, 120 mg, Day 1
[4] = 120 mg, Cohort 4, 120 mg once daily, Day 7
[5] = 120 mg, Cohort 4, 120 mg, Day 1
[6] = 240 mg, Cohort 3, 240 mg once daily, Day 7
[7] = 240 mg, Cohort 3, 240 mg, Day 1

Structure (SMILES): CC(C)(C)OC(=O)N1CCN(Cc2ccn(Cc3ccc(Cl)cc3)c(=O)c2O)CC1 [Compound 1, tert-butyl 4-((1-(4-chlorobenzyl)-3-hydroxy-2-oxo-1,2-dihydropyridin-4-yl)methyl)piperazine-1-carboxylate]
- concentration at 3 h [1, 3]: 1.95 ng/mL
- concentration at 4 h [1, 3]: 0 ng/mL
- concentration at 6 h [1, 3]: 0 ng/mL
- concentration at 8 h [1, 3]: 0 ng/mL
- concentration at 12 h [1, 3]: 0 ng/mL
- concentration at 16 h [1, 3]: 0 ng/mL
- concentration at 24 h [1, 3]: 0 ng/mL
- AUC [1, 3]: 27.9 ng·h/mL
- Cmax ([1]; 120 mg, Cohort 2, 120 mg, Day 1, read-out: Cmax, mean (SD)): 9.54 ng/mL
- concentration at 0.5 h [1, 4]: 15.6 ng/mL
- concentration at 1 h [1, 4]: 9.34 ng/mL
- concentration at 2 h [1, 4]: 5.32 ng/mL
- concentration at 3 h [1, 4]: 3.69 ng/mL
- concentration at 4 h [1, 4]: 2.98 ng/mL
- concentration at 6 h [1, 4]: 3.3 ng/mL
- concentration at 8 h [1, 4]: 3.03 ng/mL
- concentration at 12 h [1, 4]: 2.59 ng/mL
- concentration at 16 h [1, 4]: 2.26 ng/mL
- concentration at 24 h [1, 4]: 1.92 ng/mL
- AUC(0-t) [1, 4]: 75.8 ng·h/mL
- Cmax ([1]; 120 mg, Cohort 4, 120 mg once daily, Day 7, read-out: Cmax, mean): 15.6 ng/mL
- concentration at 0.5 h [1, 5]: 11.9 ng/mL
- concentration at 1 h [1, 5]: 8.03 ng/mL
- concentration at 3 h [1, 5]: 2.68 ng/mL
- concentration at 4 h [1, 5]: 1.48 ng/mL
- concentration at 6 h [1, 5]: 1.14 ng/mL
- concentration at 8 h [1, 5]: 0 ng/mL
- concentration at 12 h [1, 5]: 0 ng/mL
- concentration at 16 h [1, 5]: 0 ng/mL
- concentration at 24 h [1, 5]: 0 ng/mL
- AUC [1, 5]: 38.1 ng·h/mL
- Cmax ([1]; 120 mg, Cohort 4, 120 mg, Day 1, read-out: Cmax, mean (SD)): 12 ng/mL
- concentration at 0.5 h [1, 6]: 28.5 ng/mL
- concentration at 1 h [1, 6]: 20.5 ng/mL
- concentration at 2 h [1, 6]: 10.3 ng/mL
- concentration at 3 h [1, 6]: 7.61 ng/mL
- concentration at 4 h [1, 6]: 6.99 ng/mL
- concentration at 6 h [1, 6]: 6.8 ng/mL
- concentration at 8 h [1, 6]: 6.44 ng/mL
- concentration at 12 h [1, 6]: 4.66 ng/mL
- concentration at 16 h [1, 6]: 3.27 ng/mL
- concentration at 24 h [1, 6]: 2.53 ng/mL
- AUC(0-t) [1, 6]: 139 ng·h/mL
- Cmax ([1]; 240 mg, Cohort 3, 240 mg once daily, Day 7, read-out: Cmax, mean): 28.8 ng/mL
- concentration at 0.5 h [1, 7]: 25.7 ng/mL
- concentration at 1 h [1, 7]: 15 ng/mL
- concentration at 3 h [1, 7]: 5.97 ng/mL
- concentration at 4 h [1, 7]: 4.12 ng/mL
- concentration at 6 h [1, 7]: 3.39 ng/mL
- concentration at 8 h [1, 7]: 3.02 ng/mL
- concentration at 12 h [1, 7]: 3.13 ng/mL
- concentration at 16 h [1, 7]: 2.25 ng/mL
- concentration at 24 h [1, 7]: 1.35 ng/mL
- AUC [1, 7]: 91.5 ng·h/mL
- Cmax ([1]; 240 mg, Cohort 3, 240 mg, Day 1, read-out: Cmax, mean (SD)): 25.7 ng/mL
- Tmax ([1]; Cohort 2, 120 mg, Day 1): 30 min
- Tmax ([1]; Cohort 3, 240 mg, Day 1): 30 min
- Tmax ([1]; Cohort 5, 60 mg, Day 1): 30 min
- Mean observed amount of Compound 1 in fecal samples ([2]; Cohort 1, 60 mg once daily, DAY 7, 0-24 hours): 22.0 mg
- Mean observed amount of Compound 1 in fecal samples ([2]; Cohort 1, 60 mg, DAY 1, 0-24 hours): 11.8 mg
- Mean observed amount of Compound 1 in fecal samples ([2]; Cohort 2, 120 mg once daily, DAY 7, 0-24 hours): 37.5 mg
- Mean observed amount of Compound 1 in fecal samples ([2]; Cohort 2, 120 mg, DAY 1, 0-24 hours): 5.9 mg
- Mean observed amount of Compound 1 in fecal samples ([2]; Cohort 3, 240 mg once daily, DAY 7, 0-24 hours): 125.3 mg
- Mean observed amount of Compound 1 in fecal samples ([2]; Cohort 3, 240 mg, DAY 1, 0-24 hours): 46.5 mg
- Mean observed amount of Compound 1 in fecal samples ([2]; Cohort 4, 120 mg once daily, DAY 7, 0-24 hours): 33.9 mg
- Mean observed amount of Compound 1 in fecal samples ([2]; Cohort 4, 120 mg, DAY 1, 0-24 hours): 14.4 mg
- Mean observed amount of Compound 1 in fecal samples ([2]; Cohort 5, 60 mg once daily, DAY 7, 0-24 hours): 11.6 mg
- Mean observed amount of Compound 1 in fecal samples ([2]; Cohort 5, 60 mg, DAY 1, 0-24 hours): 13.0 mg
- Mean fecal concentrations of Compound 1, range across cohorts ([2]; Day 1): 40 to 225 µg/g
- Mean fecal concentrations of Compound 1, range across cohorts ([2]; Day 7): 95 to 506 µg/g
- dose excreted ([2]; Day 1): 5 to 22%
- dose excreted ([2]; Day 7): 19 to 52%
